Patent publication US11471502B2, “Neuroprotective peptide” (UNIVERSITY COLLEGE CARDIFF C[…], priority 2017, dated 2022)

Key:
[1] = tested on: embryonic striatal cultures; experiment: TUNEL apoptosis in neuronal embryonic striatal cultures; assay type: cell-based, mouse
Description: Data are expressed as Mean±SEM, n=5. Two-way ANOVA Bonferroni post-hoc comparison **p<0.01.
Embryonic cultures (E16) were prepared from striata of WT mice, plated onto poly-L-lysine coated glass and kept for 10 days in culture medium as previously described (Fasano et al, Biol Psy 2009). Two different concentrations (20 μM and 50 μM) of CPP-RB5 and CPP-SCR peptides were added to the culture medium by the third day and replaced every day. On day 11, cells were fixed with 4% PFA pH 7.4 in PBS for 10 min.
The DeadEnd Colorimetric TUNEL System (Promega) was used to detect apoptotic cells in cultured cells labelling the fragmented DNA of apoptotic cells using a modified TUNEL assay. TUNEL staining was realized with diaminobenzide (DAB) following the manufacture's protocol. Sample areas were digitized through a video camera (Nicon) connected to a Zeiss microscope using a 20× objective. 4 areas were counted and averaged for each plate.

Lister Hooded rats = experiment: Contextual Fear Conditioning after infusion into dorsal hippocampus; assay type: in vivo, rat
Description: (*p<0.05, **p<0.01, FLSD test).
The subjects were adult male Lister hooded rats weighing 280-350 g. They were housed in pairs, in holding rooms maintained at 21° C. on a reversed-light cycle (12 h light/dark; lights on at 10:00 P.M.). All experiments were conducted in the dark period of the rats. Food and water were freely available throughout the experiment. Steel double guide cannulae aimed at the dorsal hippocampus (AP−3.50, relative to bregma) were surgical implanted under anaesthesia at least one week prior to behavioural training and microinfusions. Bilateral infusions with either 2 mg/ml CPP-SCR or CPP-RB5, 20 min prior to conditioning (pH 7.0, […]) via the chronically indwelling cannula were carried out in awake rats using a syringe pump, connected to injectors (28 gauge, projecting 1 mm beyond the guide cannulae) by polyethylene tubing.
Conditioning was performed in one of two distinct contexts. These contexts were designed to differ in a number of distinctive characteristics including size, spatial location, odour and lighting.
Rat protocol: during the 3 min conditioning training trial, rats received a single scrambled footshock (0.5 mA for 2 s) 2 min after being placed into one of the conditioning contexts (CtxA). All rats were returned to the home cages after conditioning. Retrieval tests 3 hr (post-retrieval short-term memory, STM), or 2 days (long-term memory, LTM) after recall again consisted of exposing the rat to the conditioning context for 2 min.
For all protocols, freezing behavior served as a measure of conditioned fear to the context during the conditioning and retrieval tests of the behavioural procedures. This was video-recorded and quantified by an observer blind to the experimental group. One unit of freezing was defined as a continuous absence of movement other than that required for respiration in 1 s sampled every 10 s.

[2] = tested on: ERK-dependent nuclear signalling (histone H3) and cytoplasmic signalling (ribosomal protein S6); experiment: Ex vivo acute slices, glutamate stimulation, immunofluorescence for phospho-acetyl histone H3 and phospho-S6; assay type: cell-based, mouse; details: 50 μM peptide, glutamate 100 μM
Description: a) RB5 peptide selectively promoted activation of ERK2. Acute striatal slices either pre-treated with Scramble (SCR) or RB5 peptide (50 μM) and then stimulated 10 minutes with glutamate (GLU) (100 μM) or vehicle were analysed in Western blot (left panel) and probed with anti phospho ERK antibodies (p44^ERK1 and p42^ERK2) and anti ERK1/2 antibody. GAPDH was used as loading control. […] No changes were detected in the total ERK1 and ERK2 levels. GAPDH was used as loading control. […] Mice injected with a single dose of CPP-SCR or CPP-RB5 peptides (20 mg/kg, i.p.) were rapidly perfused 1 h later and brains were dissected and further analysed for IHC and immunofluorescence. Representative photomicrographs of pERK1/2, pMSK, pAch3, pELK1 and c-Fos expression in the striatum. […] Two-way ANOVA Bonferroni post hoc comparison: one black star, p<0.05, two black stars, p<0.01, one white star, p<0.001. p) Dose response curve of RB5 peptide for ERK activation. 200 μm thick striatal slices were freshly prepared from 2-month old mice and transferred into a perfusion chamber for 1 h at 32° C. Slices were pre-treated with different doses of RB5 or scrambled control. After 1 h, slices for each dose was fixed in PFA 4% for 15 min. 18 μm cryo-sections were processed for immunohistochemistry with anti-phospho p44/p42 MAP kinase. Neuronal quantification was performed with ImageJ software by counting the number of phospho-ERK positive cells in each slice. The level of activation is expressed on the Y-axis as arbitrary units (AU). Doses are reported in a logarithmic scale (Log 10) on the X-axis. The EC50 was calculated using GraphPad Prism software.
Adult mice were anesthetized and decapitated. […]
Slides were placed in a humid chamber and 1 h after blocking in 5% normal goat serum and 0.1% Triton X-100 solution, they were incubated overnight at 4° C. with one of the following primary antibodies: anti-phospho-S6 ribosomal protein (Ser235/236) (1:200 Cell Signalling Technology, Danvers, Mass.), anti-phospho-S6 ribosomal protein (Ser240/244) (1:200 Cell Signalling Technology, Danvers, Mass.), anti-phospho (Ser10)-acetylated (Lys14) histone H3 (1:1000 (Millipore, Billerica, Mass.) or Cleaved Caspase 3 (1:200 Cell Signalling Technology, Danvers, Mass.) and anti-NeuN (1:1000 Millipore, Billerica, Mass.) followed by appropriate secondary antibodies. […] Neuronal quantification is performed with ImageJ software by counting phospho-S6 immunoreactive or pH3 neurons among NeuN positive neurons in each slide (n=10 for each experimental group). […]

[3] = 2 mg/ml bilateral dorsal CA1 infusion 20 min prior to conditioning
[4] = 2 mg/ml infusion into dorsal hippocampus prior to CFC

Compound | apoptotic levels (TUNEL apoptotic nuclei) ([1]; higher dose (50 μM), 7 days, vs Scramble) | STM and LTM (freezing at 3 hr and 2 days after training) (Lister Hooded rats; [3]) | post footshock (postUS) freezing behaviour during fear conditioning (Lister Hooded rats; [3]) | phospho (Ser10)-acetyl(Lys14)-histone-H3, nuclear ERK signalling [2] | phospho-S6 ribosomal protein, cytosolic/cytoplasmic signalling [2] | reduction of apoptosis compared to CPP-SCR values ([1]; 50 μM, 7 consecutive days, TUNEL) [%] | acquisition of contextual fear memory (Lister Hooded rats; [4]) | long-term fear memory (Lister Hooded rats; [4])
CSCC[C@H](NC(=O)[C@H](CCC(=O)O)NC(=O)[C@@H](NC(=O)[C@H](CCC(=O)O)NC(=O)CNC(=O)[C@@H]1CCCN1C(=O)[C@@H](NC(=O)CNC(=O)[C@@H]1CCCN1C(=O)CNC(=O)[C@@H](NC(=O)CNC(=O)[C@H](CCC(=O)O)NC(=O)[C@@H](NC(=O)[C@H](CCCNC(=N)N)NC(=O)[C@H](CCCNC(=N)N)NC(=O)[C@@H]1CCCN1C(=O)[C@H](CCC(=O)O)NC(=O)CNC(=O)CNC(=O)CNC(=O)CNC(=O)CNC(=O)[C@H](CCC(N)=O)NC(=O)[C@@H]1CCCN1C(=O)[C@@H]1CCCN1C(=O)[C@H](CCCNC(=N)N)NC(=O)[C@H](CCCNC(=N)N)NC(=O)[C@H](CCCNC(=N)N)NC(=O)[C@H](CCC(N)=O)NC(=O)[C@H](CCCNC(=N)N)NC(=O)[C@H](CCCNC(=N)N)NC(=O)[C@H](CCCCN)NC(=O)[C@H](CCCCN)NC(=O)[C@H](CCCNC(=N)N)NC(=O)CNC(C)=O)[C@@H](C)O)C(C)C)C(C)C)C(C)C)C(=O)N[C@H](C(=O)N[C@@H](CCCCN)C(=O)NCC(=O)N[C@@H](CCC(N)=O)C(=O)N1CCC[C@H]1C(=O)N[C@@H](Cc1ccccc1)C(=O)N[C@@H](CC(=O)O)C(=O)N[C@@H](C(=O)O)C(C)C)C(C)C [RB5] | significant reduction of apoptotic levels | increase in both STM and LTM | increase | promotes | not activated | – | – | –
GRKKRRQRRRPPQGGGGGEPRRTEGVGPGVPGEVEMVKGQPFDV (listed as Homo sapiens) [CPP-RB5] | – | – | – | massive intra-nuclear MAPKs substrate activation | no effect | 32 | enhanced | stronger long-term fear memory
